In ChEMBL document CHEMBL1126751, “Studies on quinazolines. 5. 2,3-dihydroimidazo[1,2-c]quinazoline derivatives: a novel class of potent and selective alpha 1-adrenoceptor antagonists and antihypertensive agents” (J Med Chem, 1993) one finds pA2, Ki and MBP data, which are given here for two molecules.

Molecules are shown by their SMILES.

The pA2 is the negative logarithm of the molar antagonist concentration that doubles the agonist concentration needed for the same response. Higher therefore signals a more potent antagonist. As usually defined, the Ki is a measure of affinity in units of concentration, obtained from inhibition or displacement. The low end stands for a stronger hold on the target, the high end for a looser hold on the target.

Test [1] deals with T1, Adrenergic receptor alpha-1 (Rattus norvegicus, UniProt P15823+P23944+P43140).
T1 sequence (P15823 whole entry): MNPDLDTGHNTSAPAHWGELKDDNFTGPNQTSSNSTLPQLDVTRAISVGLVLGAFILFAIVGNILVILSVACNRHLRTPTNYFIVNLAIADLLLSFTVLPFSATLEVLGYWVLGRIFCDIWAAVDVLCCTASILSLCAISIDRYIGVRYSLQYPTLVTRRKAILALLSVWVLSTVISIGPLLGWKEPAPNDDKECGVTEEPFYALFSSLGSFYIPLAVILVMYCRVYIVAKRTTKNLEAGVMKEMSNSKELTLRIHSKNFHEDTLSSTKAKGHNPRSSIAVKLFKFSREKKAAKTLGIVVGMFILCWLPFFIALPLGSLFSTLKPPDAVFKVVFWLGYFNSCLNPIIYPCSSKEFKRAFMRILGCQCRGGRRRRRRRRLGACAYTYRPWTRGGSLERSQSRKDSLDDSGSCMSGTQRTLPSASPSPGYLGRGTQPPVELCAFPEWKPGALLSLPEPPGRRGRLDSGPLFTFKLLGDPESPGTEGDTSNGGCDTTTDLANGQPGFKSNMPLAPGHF
T1 sequence (P23944 whole entry): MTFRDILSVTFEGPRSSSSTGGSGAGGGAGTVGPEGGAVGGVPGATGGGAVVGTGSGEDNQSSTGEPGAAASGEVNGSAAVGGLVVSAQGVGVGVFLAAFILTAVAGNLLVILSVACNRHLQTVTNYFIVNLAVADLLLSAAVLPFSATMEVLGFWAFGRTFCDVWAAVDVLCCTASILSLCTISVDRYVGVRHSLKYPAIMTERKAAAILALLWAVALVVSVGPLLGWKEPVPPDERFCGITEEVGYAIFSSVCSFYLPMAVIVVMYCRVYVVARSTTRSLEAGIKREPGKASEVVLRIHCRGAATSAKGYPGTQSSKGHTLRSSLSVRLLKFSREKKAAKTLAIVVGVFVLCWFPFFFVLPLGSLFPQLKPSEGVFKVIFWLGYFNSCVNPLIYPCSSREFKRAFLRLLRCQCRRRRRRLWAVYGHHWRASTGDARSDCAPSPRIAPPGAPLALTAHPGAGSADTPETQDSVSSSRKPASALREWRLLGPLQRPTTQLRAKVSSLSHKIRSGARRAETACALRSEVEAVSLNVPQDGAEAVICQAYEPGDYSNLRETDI
T1 sequence (P43140 whole entry): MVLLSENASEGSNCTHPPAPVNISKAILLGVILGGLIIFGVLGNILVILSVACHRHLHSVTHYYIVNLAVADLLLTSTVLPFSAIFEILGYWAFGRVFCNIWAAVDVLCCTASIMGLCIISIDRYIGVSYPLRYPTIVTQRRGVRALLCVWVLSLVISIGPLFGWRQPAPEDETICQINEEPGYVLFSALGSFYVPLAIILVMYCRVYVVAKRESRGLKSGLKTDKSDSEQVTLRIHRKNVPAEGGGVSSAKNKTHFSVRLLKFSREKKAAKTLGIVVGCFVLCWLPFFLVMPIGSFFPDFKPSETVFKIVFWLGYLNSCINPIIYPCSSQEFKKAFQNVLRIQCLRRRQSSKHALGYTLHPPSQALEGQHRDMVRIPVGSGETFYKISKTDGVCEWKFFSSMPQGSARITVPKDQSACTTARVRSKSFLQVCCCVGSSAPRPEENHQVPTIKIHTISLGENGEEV
As to the kind of experiment: Alpha-1 antagonistic activity against phenylephrine in rat aorta. The test is classed as functional, tissue-based.

Test [2] has as its target T2, Adrenergic receptor alpha-2 (Rattus norvegicus, UniProt P22086+P19328+P22909).
T2 sequence (P22086 whole entry): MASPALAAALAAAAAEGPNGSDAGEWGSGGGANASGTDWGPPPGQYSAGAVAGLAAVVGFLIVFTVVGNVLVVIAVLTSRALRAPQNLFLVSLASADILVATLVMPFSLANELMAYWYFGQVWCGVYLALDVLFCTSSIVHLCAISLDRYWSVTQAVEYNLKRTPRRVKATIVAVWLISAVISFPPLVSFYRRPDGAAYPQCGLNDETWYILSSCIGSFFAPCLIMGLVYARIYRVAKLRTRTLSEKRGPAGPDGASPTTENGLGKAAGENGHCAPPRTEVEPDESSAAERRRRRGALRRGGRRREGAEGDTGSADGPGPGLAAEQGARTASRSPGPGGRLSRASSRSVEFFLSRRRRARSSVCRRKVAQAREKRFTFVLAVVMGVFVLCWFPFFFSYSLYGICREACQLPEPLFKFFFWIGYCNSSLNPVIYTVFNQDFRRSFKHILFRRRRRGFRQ
T2 sequence (P19328 whole entry): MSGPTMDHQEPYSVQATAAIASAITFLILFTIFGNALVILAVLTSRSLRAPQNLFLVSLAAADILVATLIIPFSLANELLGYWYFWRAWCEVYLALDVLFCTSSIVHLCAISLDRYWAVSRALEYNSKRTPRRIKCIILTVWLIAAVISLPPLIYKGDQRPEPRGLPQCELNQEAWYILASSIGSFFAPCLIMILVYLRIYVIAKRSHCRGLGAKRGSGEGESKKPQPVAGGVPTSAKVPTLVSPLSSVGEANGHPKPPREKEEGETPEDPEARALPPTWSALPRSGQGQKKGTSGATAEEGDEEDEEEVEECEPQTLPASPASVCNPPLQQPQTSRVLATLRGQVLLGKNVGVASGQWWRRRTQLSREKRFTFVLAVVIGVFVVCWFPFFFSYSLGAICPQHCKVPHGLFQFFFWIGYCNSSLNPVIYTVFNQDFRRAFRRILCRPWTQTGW
T2 sequence (P22909 whole entry): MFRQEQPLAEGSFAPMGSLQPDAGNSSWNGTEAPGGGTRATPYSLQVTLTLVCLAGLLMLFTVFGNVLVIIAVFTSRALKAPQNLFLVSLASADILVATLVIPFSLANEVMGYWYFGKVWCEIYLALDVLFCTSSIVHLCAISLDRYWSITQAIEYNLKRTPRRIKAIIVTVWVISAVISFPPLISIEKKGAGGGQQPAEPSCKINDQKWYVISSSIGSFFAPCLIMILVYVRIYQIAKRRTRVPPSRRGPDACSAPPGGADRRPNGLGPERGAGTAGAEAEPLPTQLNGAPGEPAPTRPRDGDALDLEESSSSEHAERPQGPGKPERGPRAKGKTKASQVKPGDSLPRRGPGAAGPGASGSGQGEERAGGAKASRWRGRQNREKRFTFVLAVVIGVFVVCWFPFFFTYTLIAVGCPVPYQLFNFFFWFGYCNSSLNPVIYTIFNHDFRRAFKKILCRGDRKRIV
As to the kind of experiment: Binding affinity against alpha-2 adrenergic receptor by measuring displacement of [3H]clonidine from rat brain cortex membranes (in vitro). It is filed as cell membranes, Membrane. (In a radioligand displacement assay an active substance lowers the binding of a labelled ligand.)

Test [3] concerns the target T1, Adrenergic receptor alpha-1. Kind of test: Binding affinity against alpha-1 adrenergic receptor by measuring displacement of [3H]prazosin from rat brain cortex membranes (in vitro). The test is classed as cell membranes, Membrane.
For test [4], the system named is Rattus norvegicus. As to the kind of experiment: Blood pressure lowering activity in spontaneously hypertensive rats (SHR) after 6 hours of administration (iv) of dose of 0.5 mg/kg […]. It is filed as functional.
Test [5] concerns Rattus norvegicus. Kind of test: Blood pressure lowering activity in spontaneously hypertensive rats (SHR) after 1 hour of administration (iv) of dose of 0.5 mg/kg […]. It is filed as functional.
Test [6] concerns Rattus norvegicus. As to the kind of experiment: Blood pressure lowering activity in spontaneously hypertensive rats (SHR) after 6 hours of administration (iv) of dose of 1.0 mg/kg […]. The test is classed as functional.
For test [7], the system named is Rattus norvegicus. As to the kind of experiment: Blood pressure lowering activity in spontaneously hypertensive rats (SHR) after 1 hour of administration (iv) of dose of 1.0 mg/kg […]. The test is classed as functional.

In turn, `COc1ccccc1N1CCN(CCn2c(=O)[nH]c3ccccc3c2=O)CC1` registered a pA2 in test [1] of 9.63. The Ki in test [2] amounted to 1.599 µM; in test [3], 0.00025 µM. Besides, the MBP in the test on Rattus norvegicus [4] is given as -31.7 mmHg; with Rattus norvegicus [5], -33.9 mmHg.
`CN1C(=O)N2C(=NCC2CN2CCN(c3ccccc3)CC2)c2ccccc21` (stereo not drawn) yielded an inhibitory constant (Ki) in test [3] of 0.015 µM. In addition, the MBP is reported as -20 mmHg in the test on Rattus norvegicus [6] and -23.3 mmHg in the test with Rattus norvegicus [7].
